One assay addresses T1, CSNK2A1 (Homo sapiens, UniProt P68400).
T1 construct: CSNK2A-NLuc fusion
The assay is described as follows: NanoBRET in-cell target engagement, Tracer K10 displacement, HEK293. It is filed as cell-based.

A further assay deals with T2, CSNK2A2 (Homo sapiens, UniProt P19784).
T2 construct: CSNK2A-NLuc fusion
Described as above. It counts as cell-based.

Data on five compounds can be found in doi:10.1101/2023.05.15.540828, “Optimization of 3-Cyano-7-cyclopropylamino-pyrazolo[1,5-a]pyrimidines Toward the Development of an In Vivo Chemical Probe for CSNK2A” (bioRxiv, 2023).

The structures appear in SMILES notation.

T2 sequence (P19784 whole entry, the tested form may be a part): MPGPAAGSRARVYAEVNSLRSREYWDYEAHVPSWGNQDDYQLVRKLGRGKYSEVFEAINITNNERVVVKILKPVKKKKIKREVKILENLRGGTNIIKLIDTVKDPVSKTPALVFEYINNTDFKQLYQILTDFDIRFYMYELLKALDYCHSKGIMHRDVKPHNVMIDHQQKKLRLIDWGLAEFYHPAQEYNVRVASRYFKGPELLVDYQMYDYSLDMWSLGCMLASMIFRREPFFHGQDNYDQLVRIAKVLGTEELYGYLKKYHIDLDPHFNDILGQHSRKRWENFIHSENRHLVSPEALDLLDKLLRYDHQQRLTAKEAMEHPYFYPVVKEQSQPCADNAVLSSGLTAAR
T1 sequence (P68400 whole entry, the tested form may be a part): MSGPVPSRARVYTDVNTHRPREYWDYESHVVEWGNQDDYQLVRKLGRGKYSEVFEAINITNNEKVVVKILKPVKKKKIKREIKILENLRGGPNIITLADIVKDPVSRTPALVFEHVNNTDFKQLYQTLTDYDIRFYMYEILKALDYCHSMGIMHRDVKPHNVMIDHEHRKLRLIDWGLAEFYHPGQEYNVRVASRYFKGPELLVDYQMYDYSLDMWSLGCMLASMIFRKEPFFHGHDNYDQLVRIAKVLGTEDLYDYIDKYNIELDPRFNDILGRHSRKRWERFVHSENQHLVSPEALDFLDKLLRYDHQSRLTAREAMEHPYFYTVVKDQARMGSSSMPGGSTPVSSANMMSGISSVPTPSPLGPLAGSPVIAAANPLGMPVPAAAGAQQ

Take `CN[C@H]1CCCN(c2ccc(Nc3cc(NC4CC4)n4ncc(C#N)c4n3)cc2NC(C)=O)C1` [2c, (S)-N-(5-((3-cyano-7-(cyclopropylamino)pyrazolo[1,5-a]pyrimidin-5-yl)amino)-2-(3-(methylamino)piperidin-1-yl)phenyl)acetamide]: the “[drawing 10] / CSNK2A1 pIC50^a” value at CSNK2A1 came out at 8.3 pIC50. For the same compound, the “[drawing 10] / CSNK2A2 pIC50^a” value at CSNK2A2 is given as 8.4 pIC50.
As to `CN[C@H]1CCN(c2ccc(Nc3cc(NC4CC4)n4ncc(C#N)c4n3)cc2NC(C)=O)C1` [2e, (S)-N-(5-((3-cyano-7-(cyclopropylamino)pyrazolo[1,5-a]pyrimidin-5-yl)amino)-2-(3-(methylamino)pyrrolidin-1-yl)phenyl)acetamide], the “[drawing 10] / CSNK2A1 pIC50^a” value at CSNK2A1 is 8.3 pIC50. For the same compound, at CSNK2A2, the “[drawing 10] / CSNK2A2 pIC50^a” value came to 8.4 pIC50.
As to `CC(=O)Nc1cc(Nc2cc(NC3CC3)n3ncc(C#N)c3n2)ccc1N[C@@H]1CCCOC1` [2m, (R)-N-(5-((3-cyano-7-(cyclopropylamino)pyrazolo[1,5-a]pyrimidin-5-yl)amino)-2-((tetrahydro-2H-pyran-3-yl)amino)phenyl)acetamide], on CSNK2A1, the “[drawing 10] / CSNK2A1 pIC50^a” value worked out at 8.0 pIC50. Besides, the “[drawing 10] / CSNK2A2 pIC50^a” value at CSNK2A2 is 8.1 pIC50.
For `CN[C@@H]1CCN(c2ccc(Nc3cc(NC4CC4)n4ncc(C#N)c4n3)cc2NC(C)=O)C1` [2d, (R)-N-(5-((3-cyano-7-(cyclopropylamino)pyrazolo[1,5-a]pyrimidin-5-yl)amino)-2-(3-(methylamino)pyrrolidin-1-yl)phenyl)acetamide], in that order: 8.6 pIC50 and 8.8 pIC50.
For `CC(=O)Nc1cc(Nc2cc(NC3CC3)n3ncc(C#N)c3n2)ccc1N(C)C[C@@H]1CCCN1` [2f, (S)-N-(5-((3-cyano-7-(cyclopropylamino)pyrazolo[1,5-a]pyrimidin-5-yl)amino)-2-(methyl(pyrrolidin-2-ylmethyl)amino)phenyl)acetamide], in that order: 8.4 pIC50 and 8.5 pIC50.
